The text below walks through data of patent publication US11739089B2, “Acetamido-phenyltetrazole derivatives and methods of using the same” (Athenex, Inc., priority 2020, dated 2023).

Molecules are shown by their SMILES. pEC50, pIC50: −log10 of the molar value. Like-named read-outs stand apart in the source and are kept apart here.

As a reminder, the pEC50 is −log10 of the EC50, conventionally taken in molar units. A low value points to a high EC50. As a reminder, the pIC50 is −log10 of the IC50, conventionally taken in molar units. Higher therefore signals a small IC50.

One data set concerns the target P-glycoprotein (Homo sapiens (Human), UniProt P08183). Kind of data set: P-glycoprotein inhibitory activity: MTT cell growth assay in P-gp overexpressing MES-SA/DX5 cells with docetaxel or paclitaxel. Format: cell-based. The settings on record: 3 days, with 100 nM docetaxel or 200 nM paclitaxel, MTT readout. The protocol: P-glycoprotein inhibitory activity may be determined by an assay wherein P-glycoprotein overexpressed cell lines are treated with increasing concentrations of a compound of the present disclosure and therapeutic agent for three days, followed by an MTT assay.
Cell growth percentage may be calculated with the following equation: Cell growth percentage=(T−T0)/(C−T0)×100%, wherein T is OD of the test well exposure to Compound; C is OD of the control well without Compound treatment; and T0 is OD at time zero.
A P-glycoprotein overexpressing cell line derived from the human uterine sarcoma cell line MES-SA (i.e., MES-SA/DX5 cells (ATCC)) was seeded by stepwise exposures to increasing concentrations of doxorubicin, in a 96-well plate at 6,500 cells/100 μL media (McCoy's 5A+10% FBS) in each well. The cells were incubated overnight at 37° C. 5% CO2. Compounds were diluted in a separate 96-well plate to yield 11× of final concentration (final Compound concentrations were 0, 5, 20, 80, 320, and 1280 nM and the final docetaxel concentration was 100 nM or the final paclitaxel concentration was 200 nM). DMSO was used as a negative control and known P-glycoprotein inhibitor, encequidar methane sulfonic acid monohydrate (HM30181A), was used as a positive control. 10 μL of the 11× dilutions was added to the appropriate well, P-glycoprotein inhibition wells comprised Compound+docetaxel (or Compound+paclitaxel). The compound toxicity wells comprised 1280 nM Compound+10 μL of culture media. Treated the cells were incubated for 3 days at 37° C. 5% CO2.
To value (reflecting the starting number of cells upon Compound treatment) of 3 wells of cells was determined by performing the following steps 1-4 as described below.
1. 10 μL MTT (5 mg/mL in PBS) was added to each well and incubated for 1.5 hours at 37° C. 5% CO2.
2. Culture media was removed and 100 μL of DMSO was added to each well.
3. The plate was gently shook until all purple MTT formazan crystals were dissolved. OD540 was then measured using microplate reader.
4. Cell growth percentage was calculated with the following equation: Cell growth percentage=(T−T0)/(C−T0)×100%, wherein T is OD of the test well exposure to Compound; C is OD of the control well without Compound treatment; and T0 is OD at time zero.
For orientation: Formazan colour is commonly taken as a measure of viable cells.

The next data set concerns the target CYP3A4 (Homo sapiens (Human), UniProt P08684). As to the kind of experiment: CYP3A4 inhibitory activity: Luciferin-IPA (P450-Glo) assay with human liver microsome. The protocol:
Cytochrome P450 activity may be determined by a P450-Glo™ assay (Promega) with human liver microsomes wherein the compounds of the present disclosure are dosed at different concentrations in buffer and incubated. Dose-response curve and IC50 data may be obtained and fit to a nonlinear regression model using GraphPad Prism software (v6.0).
The standard final Compound concentrations were 37, 111, 333, 1000, and 3000 nM. 12.5 μL of the Compound dilutions were transferred to a white 96-well plate. 1450 μL (enough for a whole plate) of 4× assay buffer (400 mM potassium phosphate buffer (10 mL 1M potassium phosphate buffer: 8.02 mL 1M K2HPO4+1.98 mL 1M KH2PO4 (1.4 g K2HPO4+0.27 g KH2PO4 in 10 mL H2O), 32 μM Luciferin-IPA (Promega V9002)) 580 μl of 1 M K3PO4 buffer, 870 μL H2O, 14 μL of 3 mM Luciferin-IPA, and 18 μL of human liver microsome (Sigma M0317-1VL) was made. 12.5 μL of 4× assay buffer was added to each well. For the well of blank control, 12.5 μL of 4× assay buffer without liver microsome was added. The plate was incubated at room temperature for 15 minutes. 2.75 mL NADPH buffer was made as follows: 2.42 mL H2O, 275 μL solution A and 55 μL solution B (NADPH regeneration system, Promega V9510). 25 μL of the buffer was added to each well. The plates were incubated at 37° C. for 11 minutes. 50 μL of luciferin detection reagent (Promega V9002) was added and the plates were incubated at room temperature for 5 minutes. The plate was read with a luminometer.
The dose-response curve and IC50 were obtained by fitting data to nonlinear regression model using GraphPad Prism software (v6.0).
In general terms: Liver microsomes are vesicles of endoplasmic reticulum, rich in cytochrome P450 enzymes.

Chain of CYP3A4 (P08684 whole entry): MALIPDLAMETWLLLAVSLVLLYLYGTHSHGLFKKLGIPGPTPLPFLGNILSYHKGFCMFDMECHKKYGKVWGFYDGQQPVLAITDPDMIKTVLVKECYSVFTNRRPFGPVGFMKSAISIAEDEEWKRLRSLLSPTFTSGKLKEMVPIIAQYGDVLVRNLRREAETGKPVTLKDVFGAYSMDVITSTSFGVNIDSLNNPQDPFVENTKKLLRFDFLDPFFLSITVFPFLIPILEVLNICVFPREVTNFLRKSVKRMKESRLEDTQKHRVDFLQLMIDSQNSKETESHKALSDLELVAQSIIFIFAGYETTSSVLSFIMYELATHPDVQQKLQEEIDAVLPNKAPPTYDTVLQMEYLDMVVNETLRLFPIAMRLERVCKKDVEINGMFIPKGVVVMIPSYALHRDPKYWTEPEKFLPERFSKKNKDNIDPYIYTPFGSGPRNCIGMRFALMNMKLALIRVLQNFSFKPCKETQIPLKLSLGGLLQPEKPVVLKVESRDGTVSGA
Chain of P-glycoprotein (P08183 whole entry): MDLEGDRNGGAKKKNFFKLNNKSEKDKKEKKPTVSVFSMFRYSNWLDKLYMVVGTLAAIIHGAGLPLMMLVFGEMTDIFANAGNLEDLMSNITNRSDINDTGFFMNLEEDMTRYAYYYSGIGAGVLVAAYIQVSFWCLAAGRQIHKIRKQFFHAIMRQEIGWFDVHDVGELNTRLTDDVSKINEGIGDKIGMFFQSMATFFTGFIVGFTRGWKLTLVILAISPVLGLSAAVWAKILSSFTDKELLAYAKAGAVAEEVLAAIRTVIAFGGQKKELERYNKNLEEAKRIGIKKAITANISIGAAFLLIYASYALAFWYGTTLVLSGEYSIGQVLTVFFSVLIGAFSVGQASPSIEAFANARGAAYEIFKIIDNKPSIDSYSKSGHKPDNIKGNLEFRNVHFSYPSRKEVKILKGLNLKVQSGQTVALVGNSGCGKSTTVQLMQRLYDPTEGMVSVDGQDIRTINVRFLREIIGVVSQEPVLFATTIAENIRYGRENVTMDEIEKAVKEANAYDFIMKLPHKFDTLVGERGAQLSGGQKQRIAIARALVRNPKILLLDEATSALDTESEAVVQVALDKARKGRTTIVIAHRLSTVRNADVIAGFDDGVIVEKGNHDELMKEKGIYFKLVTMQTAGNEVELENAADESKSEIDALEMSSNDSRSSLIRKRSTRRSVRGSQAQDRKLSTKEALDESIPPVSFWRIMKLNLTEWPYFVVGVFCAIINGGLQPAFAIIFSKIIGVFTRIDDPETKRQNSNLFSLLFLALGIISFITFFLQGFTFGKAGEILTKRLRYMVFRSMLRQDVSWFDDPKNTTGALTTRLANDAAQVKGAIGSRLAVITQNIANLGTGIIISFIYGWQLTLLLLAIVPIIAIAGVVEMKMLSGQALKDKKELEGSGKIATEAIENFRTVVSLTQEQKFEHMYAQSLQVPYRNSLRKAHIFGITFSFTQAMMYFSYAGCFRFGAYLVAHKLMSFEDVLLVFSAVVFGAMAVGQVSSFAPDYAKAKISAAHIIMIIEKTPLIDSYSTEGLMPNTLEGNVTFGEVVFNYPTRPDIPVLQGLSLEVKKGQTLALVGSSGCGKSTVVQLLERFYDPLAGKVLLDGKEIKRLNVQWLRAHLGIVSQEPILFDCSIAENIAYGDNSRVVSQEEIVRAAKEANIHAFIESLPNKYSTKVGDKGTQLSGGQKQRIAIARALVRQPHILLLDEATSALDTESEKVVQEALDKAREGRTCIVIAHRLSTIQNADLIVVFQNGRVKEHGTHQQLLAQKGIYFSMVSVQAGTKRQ

As to `COc1cc(NC(=O)c2cc(=O)c3ccccc3o2)c(-c2nnn(-c3ccc(CCN4CCc5ccc(-n6ccnc6)cc5C4)cc3)n2)cc1OC` [Compound 10, N-(2-(2-(4-(2-(7-(1H-Imidazol-1-yl)-3,4-dihydroisoquinolin-2(1H)-yl)ethyl)phenyl)-2H-tetrazol-5-yl)-4,5-dimethoxyphenyl)-4-oxo-4H-chromene-2-carboxamide], at P-glycoprotein, the pEC50 is below 6.00. The pIC50 on CYP3A4 is 6.30 to 6.60. With `COc1cc2c(cc1OC)CN(CCc1ccc(NC(=O)c3cc(OC)c(OC)cc3NC(=O)c3cnc4ccccc4c3)cc1)CC2` [Tariquidar, reference compound], the pEC50 at P-glycoprotein was above 7.00. On to `COc1cc(NC(=O)c2cc(=O)c3ccc(C)cc3o2)c(-c2nnn(-c3ccc(CCN(Cc4cccc(-n5ccnc5)c4)Cc4ccc5c(cnn5C)c4)cc3)n2)cc1OC` [Compound 5, N-(2-(2-(4-(2-((3-(1H-Imidazol-1-yl)benzyl)((1-methyl-1H-indazol-5-yl)methyl)amino)ethyl)phenyl)-2H-tetrazol-5-yl)-4,5-dimethoxyphenyl)-7-methyl-4-oxo-4H-chromene-2-carboxamide], for which the pEC50 on P-glycoprotein is below 6.00. The pIC50 on CYP3A4 (human, microsomes, 11 min) was below 6.00. As for `COc1cc2c(cc1OC)CN(CCc1ccc(-n3nnc(-c4cc(OC)c(OC)cc4NC(=O)c4cc(=O)c5ccccc5o4)n3)cc1)CC2` [Encequidar methanesulfonate monohydrate, reference compound], the pEC50 at P-glycoprotein is above 7.00. Further, the pIC50 against CYP3A4 (human, microsomes, 11 min) is below 6.00. On P-glycoprotein, `COc1cc2c(cc1OC)CN(CCc1ccc(-n3nnc(-c4cc(OC)c(OC)cc4NC(=O)c4ccc(-c5cccnc5)cc4)n3)cc1)CC2` [Compound 22, N-(2-(2-(4-(2-(6,7-Dimethoxy-3,4-dihydroisoquinolin-2(1H)-yl)ethyl)phenyl)-2H-tetrazol-5-yl)-4,5-dimethoxyphenyl)-4-(pyridin-3-yl)benzamide] gave a pEC50 of 6.60 to 7.00. Also, the pIC50 at CYP3A4 (human, microsomes, 11 min) is below 6.00. On the same counts, the results for `COc1cc2c(cc1OC)CN(CCc1ccc(-n3nnc(-c4cc(OCc5cccnc5)ccc4NC(=O)c4cc(=O)c5ccccc5o4)n3)cc1)CC2` [Compound 27, N-(2-(2-(4-(2-(6,7-Dimethoxy-3,4-dihydroisoquinolin-2(1H)-yl)ethyl)phenyl)-2H-tetrazol-5-yl)-4-(pyridin-3-ylmethoxy)phenyl)-4-oxo-4H-chromene-2-carboxamide] are above 7.00 and below 6.00. On to `COc1cc(NC(=O)c2cnc3ccccc3c2)c(-c2nnn(-c3ccc(CCN4CCc5cnccc5C4)cc3)n2)cc1OCc1ccccc1` [Compound 13, N-(4-(Benzyloxy)-2-(2-(4-(2-(3,4-dihydro-2,6-naphthyridin-2(1H)-yl)ethyl)phenyl)-2H-tetrazol-5-yl)-5-methoxyphenyl)quinoline-3-carboxamide], for which the pEC50 at P-glycoprotein is above 7.00. Also, the pIC50 against CYP3A4 was 6.00 to 6.30. In turn, `COc1cc(NC(=O)c2cc(=O)c3ccccc3o2)c(-c2nnn(-c3ccc(CCN4CCn5cncc5C4)cc3)n2)cc1OC` [Compound 1, A-(2-(2-(4-(2-(5,6-Dihydroimidazo[1,5-a]pyrazin-7(8H)-yl)ethyl)phenyl)-2H-tetrazol-5-yl)-4,5-dimethoxyphenyl)-4-oxo-4H-chromene-2-carboxamide] gave a pEC50 at P-glycoprotein below 6.00. On CYP3A4 (human, microsomes, 11 min), the pIC50 was below 6.00. `COc1cc2c(cc1OC)CN(CCc1ccc(-n3nnc(-c4cc(Oc5ccncc5)ccc4NC(=O)c4cc(=O)c5ccccc5o4)n3)cc1)CC2` [Compound 25, N-(2-(2-(4-(2-(6,7-Dimethoxy-3,4-dihydroisoquinolin-2(1H)-yl)ethyl)phenyl)-2H-tetrazol-5-yl)-4-(pyridin-4-yloxy)phenyl)-4-oxo-4H-chromene-2-carboxamide] showed a pEC50 at P-glycoprotein of 6.00 to 6.30. On CYP3A4 (human, microsomes, 11 min), this molecule had a pIC50 below 6.00.

For the molecule `COc1cc2c(cc1OC)CN(CCc1ccc(-n3nnc(-c4cc(OC)c(OC)cc4NC(=O)c4ccc(-c5ccncc5)cc4)n3)cc1)CC2` [Compound 21, N-(2-(2-(4-(2-(6,7-Dimethoxy-3,4-dihydroisoquinolin-2(1H)-yl)ethyl)phenyl)-2H-tetrazol-5-yl)-4,5-dimethoxyphenyl)-4-(pyridin-4-yl)benzamide], the pEC50 on P-glycoprotein is above 7.00. The same molecule had a pIC50 against CYP3A4 (human, microsomes, 11 min) below 6.00. In turn, `COc1cc2c(cc1OC)CN(CCc1ccc(-n3nnc(-c4cc(OCc5ccccc5)c(OC)cc4NC(=O)c4cc(=O)c5ccccc5o4)n3)cc1)CC2` [Compound 29, N-(4-(Benzyloxy)-2-(2-(4-(2-(6,7-dimethoxy-3,4-dihydroisoquinolin-2(1H)-yl)ethyl)phenyl)-2H-tetrazol-5-yl)-5-methoxyphenyl)-4-oxo-4H-chromene-2-carboxamide] gave a pEC50 at P-glycoprotein above 7.00. The same molecule gave a pIC50 at CYP3A4 (human, microsomes, 11 min) below 6.00.

In turn, `COc1cc(NC(=O)c2cc(=O)c3ccccc3o2)c(-c2nnn(-c3ccc(CCN4CCc5cnccc5C4)cc3)n2)cc1OC` [Compound 7, N-(2-(2-(4-(2-(3,4-Dihydro-2,6-naphthyridin-2(1H)-yl)ethyl)phenyl)-2H-tetrazol-5-yl)-4,5-dimethoxyphenyl)-4-oxo-4H-chromene-2-carboxamide] gave a pEC50 at P-glycoprotein of 6.60 to 7.00. Moreover, on CYP3A4, the negative-log IC50 (pIC50) was 6.00 to 6.30. The corresponding values for `COc1cc(NC(=O)c2cc(=O)c3ccccc3o2)c(-c2nnn(-c3ccc(CCN(Cc4cccc(-n5ccnc5)c4)Cc4ccc5c(cnn5C)c4)cc3)n2)cc1OC` [Compound 3, N-(2-(2-(4-(2-((3-(1H-Imidazol-1-yl)benzyl)((1-methyl-1H-indazol-5-yl)methyl)amino)ethyl)phenyl)-2H-tetrazol-5-yl)-4,5-dimethoxyphenyl)-4-oxo-4H-chromene-2-carboxamide] are below 6.00 and 6.00 to 6.30. The molecule `COc1cc(NC(=O)c2cc(=O)c3ccccc3o2)c(-c2nnn(-c3ccc(CCN4CCc5ccncc5C4)cc3)n2)cc1OC` [Compound 6, N-(2-(2-(4-(2-(3,4-Dihydro-2,7-naphthyridin-2(1H)-yl)ethyl)phenyl)-2H-tetrazol-5-yl)-4,5-dimethoxyphenyl)-4-oxo-4H-chromene-2-carboxamide] showed a pEC50 on P-glycoprotein of 6.60 to 7.00. Besides, the pIC50 at CYP3A4 (human, microsomes, 11 min) is below 6.00. For the molecule `COc1cc2c(cc1OC)CN(CCc1ccc(-n3nnc(-c4cc(OC)c(OC)cc4NC(=O)c4ccc(-n5ccnc5)cc4)n3)cc1)CC2` [Compound 23, N-(2-(2-(4-(2-(6,7-Dimethoxy-3,4-dihydroisoquinolin-2(1H)-yl)ethyl)phenyl)-2H-tetrazol-5-yl)-4,5-dimethoxyphenyl)-4-(1H-imidazol-1-yl)benzamide], the negative-log EC50 (pEC50) on P-glycoprotein is 6.30 to 6.60. The pIC50 at CYP3A4 is 6.00 to 6.30. Regarding `COc1cc(NC(=O)c2cc(=O)c3ccccc3o2)c(-c2nnn(-c3ccc(CCN4CCc5cc(OC)c(OCCn6ccnc6)cc5C4)cc3)n2)cc1OC` [Compound 14, N-(2-(2-(4-(2-(7-(2-(1H-Imidazol-1-yl)ethoxy)-6-methoxy-3,4-dihydroisoquinolin-2(1H)-yl)ethyl)phenyl)-2H-tetrazol-5-yl)-4,5-dimethoxyphenyl)-4-oxo-4H-chromene-2-carboxamide], at P-glycoprotein, the negative-log EC50 (pEC50) is below 6.00. With `COc1cc(NC(=O)c2cnc3ccccc3c2)c(-c2nnn(-c3ccc(CCN4CCc5cnccc5C4)cc3)n2)cc1OCc1ccccc1` [Compound 17, N-(4-(Benzyloxy)-2-(2-(4-(2-(3,4-dihydro-2,6-naphthyridin-2(1H)-yl)ethyl)phenyl)-2H-tetrazol-5-yl)-5-methoxyphenyl)quinoline-3-carboxamide], the pIC50 against CYP3A4 (human, microsomes, 11 min) was 6.00 to 6.30.
